In brackets after ≈: the same amount, converted by molar mass.
How the values were obtained:
[1] = Inhibition of NDM1 (unknown origin) pre-incubated for 10 mins before nitrocefin substrate addition
[2] = tested on: Klebsiella pneumoniae ATCC BAA-2146; assay: Inhibition of NDM1 in Klebsiella pneumoniae ATCC BAA-2146 assessed as rescue concentration needed to fully regain activity of meropenem at clinical breakpoint (2.5 uM) by cell-based synergy screening assay
[3] = tested on: Klebsiella pneumoniae ATCC BAA-2146; assay: Inhibition of NDM1 in Klebsiella pneumoniae ATCC BAA-2146 assessed as potentiation of meropenem-induced microbial growth inhibition by cell-based synergy screening assay
[4] = tested on: Klebsiella pneumoniae ATCC BAA-2146; assay: Inhibition of NDM1 in Klebsiella pneumoniae ATCC BAA-2146 assessed as potentiation of meropenem-induced microbial growth inhibition by measuring compound MIC by cell-based synergy screening assay
Klebsiella pneumoniae = assay: Growth inhibition of Klebsiella pneumoniae ATCC BAA-2146
[5] = tested on: Klebsiella pneumoniae ATCC BAA-2146; assay: Inhibition of NDM1 in Klebsiella pneumoniae ATCC BAA-2146 assessed as potentiation of meropenem-induced microbial growth inhibition by measuring meropenem MIC by cell-based synergy screening assay (Rvb (meropenem MIC alone) = 32.5 microg/ml)
[6] = tested on: Klebsiella pneumoniae ATCC BAA-2146; assay: Inhibition of NDM1 in Klebsiella pneumoniae ATCC BAA-2146 assessed as potentiation of meropenem-induced microbial growth inhibition by measuring meropenem MIC by cell-based synergy screening assay (Rvb (meropenem MIC alone) = 65 microg/ml)
[7] = tested on: Klebsiella pneumoniae ATCC BAA-2146; assay: Inhibition of NDM1 in Klebsiella pneumoniae ATCC BAA-2146 assessed as potentiation of meropenem-induced microbial growth inhibition by measuring meropenem MIC by cell-based synergy screening assay (Rvb (meropenem MIC alone) = 2 microg/ml)
[8] = tested on: Klebsiella pneumoniae ATCC BAA-2146; assay: Inhibition of NDM1 in Klebsiella pneumoniae ATCC BAA-2146 assessed as potentiation of meropenem-induced microbial growth inhibition by measuring meropenem MIC by cell-based synergy screening assay (Rvb (meropenem MIC alone) = 8 microg/ml)
[9] = tested on: Klebsiella pneumoniae ATCC BAA-2146; assay: Inhibition of NDM1 in Klebsiella pneumoniae ATCC BAA-2146 assessed as potentiation of meropenem-induced microbial growth inhibition by measuring meropenem MIC by cell-based synergy screening assay (Rvb (meropenem MIC alone) = 16.25 microg/ml)

With `C[C@H](NC[C@H](NC[C@H](N)C(=O)O)C(=O)O)C(=O)O` as the compound, how does the IC50 ([1]; read-out: IC50) read?
The IC50 was 22.1 µM.

And the Activity [2]?
The Activity was greater than 100 µM.

What about the fractional inhibitory concentration index (FICI) [3] of the same compound?
Its fractional inhibitory concentration index (FICI) is less than 1.5.

And the MIC [4]?
Its MIC is greater than 250 µg/mL.

What about the MIC (Klebsiella pneumoniae) of the same compound?
The MIC was 250 µg/mL (≈ 950 µM).

And the MIC [5]?
The MIC was 65 µg/mL.

Which results are given for `N[C@@H](CN[C@@H](CN1CCC[C@@H]1C(=O)O)C(=O)O)C(=O)O`?
IC50 ([1]; read-out: IC50): 9 µM; Activity [2]: > 100 µM; fractional inhibitory concentration index (FICI) [3]: < 1.5; MIC [4]: > 406 µg/mL; MIC (Klebsiella pneumoniae): 406 µg/mL (≈ 1400 µM); MIC [5]: 65 µg/mL

For `C[C@H](CC(=O)O)NC[C@H](NC[C@H](N)C(=O)O)C(=O)O`, which IC50 ([1]; read-out: IC50) is on record?
The IC50 was 94 µM.

What about the Activity [2] of the same compound?
The Activity was greater than 100 µM.

What about the fractional inhibitory concentration index (FICI) [3] of the same compound?
The fractional inhibitory concentration index (FICI) was less than 1.

And the MIC [4]?
The MIC was greater than 250 µg/mL.

And the MIC (Klebsiella pneumoniae)?
Its MIC is 125 µg/mL (≈ 451 µM).

And the MIC [5]?
Its MIC is 65 µg/mL.

With `COC(=O)C[C@H](NC[C@H](NC[C@H](N)C(=O)O)C(=O)O)C(=O)OC` as the compound, how does the IC50 [1] read?
Its IC50 is “Not Active”.

What about the Activity [2] of the same compound?
Its Activity is greater than 100 µM.

And the fractional inhibitory concentration index (FICI) [3]?
Its fractional inhibitory concentration index (FICI) is 2.

What about the MIC [6] of the same compound?
The MIC was 65 µg/mL.

What about the MIC [4] of the same compound?
Its MIC is greater than 298 µg/mL.

And the MIC (Klebsiella pneumoniae)?
Its MIC is greater than 298 µg/mL.

Which IC50 ([1]; read-out: IC50) does the source give for `N[C@@H](CN[C@@H](CN[C@@H](CC(=O)O)C(=O)O)C(=O)O)C(=O)O` here?
Its IC50 is 7 µM.

What about the Activity [2] of the same compound?
Its Activity is 25 µM.

What about the fractional inhibitory concentration index (FICI) [3] of the same compound?
The fractional inhibitory concentration index (FICI) was less than 0.28.

What about the MIC [4] of the same compound?
The MIC was greater than 250 µg/mL.

What about the MIC (Klebsiella pneumoniae) of the same compound?
Its MIC is 62.5 µg/mL (≈ 203 µM).

What about the MIC [7] of the same compound?
Its MIC is 65 µg/mL.

With `N[C@H](CN[C@H](CN[C@@H](CC(=O)O)C(=O)O)C(=O)O)C(=O)O` as the compound, how does the IC50 ([1]; read-out: IC50) read?
The IC50 was 8.1 µM.

And the Activity [2]?
The Activity was 50 µM.

What about the fractional inhibitory concentration index (FICI) [3] of the same compound?
Its fractional inhibitory concentration index (FICI) is less than 0.62.

What about the MIC [4] of the same compound?
Its MIC is greater than 250 µg/mL.

What about the MIC (Klebsiella pneumoniae) of the same compound?
The MIC was 125 µg/mL (≈ 407 µM).

What about the MIC [8] of the same compound?
Its MIC is 65 µg/mL.

For `C[C@@H](CN[C@@H](CN[C@@H](CC(=O)O)C(=O)O)C(=O)O)C(=O)O`, which IC50 ([1]; read-out: IC50) is on record?
The IC50 was 10.4 µM.

What about the Activity [2] of the same compound?
Its Activity is 50 µM.

And the fractional inhibitory concentration index (FICI) [3]?
The fractional inhibitory concentration index (FICI) was less than 0.62.

And the MIC [4]?
The MIC was greater than 250 µg/mL.

And the MIC (Klebsiella pneumoniae)?
Its MIC is 125 µg/mL (≈ 408 µM).

What about the MIC [8] of the same compound?
Its MIC is 65 µg/mL.

What does the source list for `N[C@@H](CN[C@H](CN[C@@H](CC(=O)O)C(=O)O)C(=O)O)C(=O)O`?
IC50 ([1]; read-out: IC50): 10.4 µM; Activity [2]: 100 µM; fractional inhibitory concentration index (FICI) [3]: < 1; MIC [4]: > 250 µg/mL; MIC (Klebsiella pneumoniae): 125 µg/mL (≈ 407 µM); MIC [5]: 65 µg/mL

With `N[C@@H](CN[C@@H](CN1CCC[C@H]1C(=O)O)C(=O)O)C(=O)O` as the compound, how does the IC50 ([1]; read-out: IC50) read?
The IC50 was 12.8 µM.

And the Activity [2]?
The Activity was greater than 100 µM.

And the fractional inhibitory concentration index (FICI) [3]?
The fractional inhibitory concentration index (FICI) was 2.

And the MIC [6]?
The MIC was 65 µg/mL.

And the MIC [4]?
The MIC was greater than 280 µg/mL.

What about the MIC (Klebsiella pneumoniae) of the same compound?
Its MIC is greater than 280 µg/mL.

Which results are given for `N[C@H](CN[C@@H](CN[C@@H](CC(=O)O)C(=O)O)C(=O)O)C(=O)O`?
IC50 ([1]; read-out: IC50): 9.3 µM; Activity [2]: 50 µM; fractional inhibitory concentration index (FICI) [3]: < 0.5; MIC [4]: > 250 µg/mL; MIC (Klebsiella pneumoniae): 62.5 µg/mL (≈ 203 µM); MIC [9]: 65 µg/mL

With `COC(=O)[C@H](CN[C@@H](CC(=O)O)C(=O)O)NC[C@H](N)C(=O)OC` as the compound, how does the IC50 ([1]; read-out: IC50) read?
Its IC50 is 17.2 µM.

What about the Activity [2] of the same compound?
Its Activity is greater than 100 µM.

What about the fractional inhibitory concentration index (FICI) [3] of the same compound?
Its fractional inhibitory concentration index (FICI) is 2.

And the MIC [6]?
The MIC was 65 µg/mL.

And the MIC [4]?
The MIC was greater than 298 µg/mL.

And the MIC (Klebsiella pneumoniae)?
The MIC was greater than 298 µg/mL.

From ChEMBL document CHEMBL4043151, “Synthesis and biological evaluation of Aspergillomarasmine A derivatives as novel NDM-1 inhibitor to overcome antibiotics resistance” (Bioorg Med Chem, 2017)
